Assay: Strength and degradation profile of tigecycline 20 mg/mL bulk solutions by reversed phase HPLC (effect of temperature, time, pH, dissolved oxygen; Runs A to O)
Format: physicochemical
Conditions: pH 7.7, Oxygen = 0.1 mg/L
Experimental: The contents of the sample vials are dissolved in diluent. The sample solution is diluted, if necessary, and chromatographed on a reversed phase column using gradient elution. Impurities are determined by comparing the impurity peak areas in the sample preparation chromatogram to the average area of tigecycline peaks in the standard preparation chromatograms obtained concomitantly.
Chromatographic Column—Length about 15 cm, inside diameter about 4.6 mm, packed with Inertsil ODS2, 5 μm size particles or equivalent.
Detector—Ultraviolet spectrophotometric detector capable of operating at 248 nm with a sensitivity of about 0.5 absorbance units full scale.
The results of additional studies to investigate the effect of processing parameters such as temperature, time, and dissolved oxygen content on the purity profile of tigecycline solutions using the following materials, methods and procedures are presented in Tables A to O.
The experiments were run in plastic glove bags under normal laboratory light conditions. Plastic glove boxes will be used to control the headspace of the beakers. The batch size was 200 mL. • 1. Prepare the glove bag with a mixture of nitrogen and air to achieve an oxygen level in the solution as per the design. • 2. Place the jacketed beaker on the magnetic stirrer. Connect it to the cooler. Set the cooler to the desired set point. • 3. Add 200 mL of SWFI in to the beaker. Allow equilibrating. Measure the temperature and oxygen content. When it reaches the desired condition, add accurately weighed API and mix until dissolved. If necessary use spatula to aid dissolution. For pH adjustments, use 4 mL of either 0.1N NaOH or 0.1N HCl and 196 mL of WFI for manufacture. • 4. After complete dissolution, Transfer about 5.5 mL of Solution in vials and stopper them. These vials will be stoppered at the appropriate headspace conditions. Place the vials in appropriate temperature conditions. • 5. Sample the vials at 1, 4, 8, 10, 12 and 24 hours. Send the samples for analysis. Freeze the 10, 12 and 24 samples at −20° C. for analysis the following day. • 6. Measure pH and record color of the solution at each time point. Results
The 1-hour samples were taken directly from the beakers. Samples for later time points were collected in stoppered vials processed in the atmosphere of the bag in order to simulate the headspace conditions then placed in water baths or refrigerator to maintain there respective temperature conditions. This was done to maintain safety in the lab. Disposable plastic glove bags require constant flow of a mixture of nitrogen and air to maintain headspace oxygen level that will result in the desired dissolved oxygen (DO) content in the sample. The pH of samples was measured at each sample points.
Strength and degradation profile was analyzed by HPLC as described above. […] Degradation was slightly higher at higher temperature condition.

Structure (SMILES): CN(C)c1cc(NC(=O)CNC(C)(C)C)c(O)c2c1C[C@H]1C[C@H]3[C@H](N(C)C)C(O)=C(C(N)=O)C(=O)[C@@]3(O)C(O)=C1C2=O [Tigecycline]
- RRT 1.45 (Run #L, 2° C., 12 Hrs): 0.07%
- RRT 1.58 (Run #L, 2° C., 12 Hrs): BRL (BRL means below reporting limit (meaning less than 0.05% of tigecycline peak))
- RRT 1.64 Mino (Run #L, 2° C., 12 Hrs): 0.14%
- RRT 1.67 MW = 556 (Run #L, 2° C., 12 Hrs): BRL (BRL means below reporting limit (meaning less than 0.05% of tigecycline peak))
- RRT 1.85 MW = 597 (Run #L, 2° C., 12 Hrs): 0.08%
- Strength (Run #L, 2° C., 12 Hrs): 19.448 mg/mL
- Total (Run #L, 2° C., 12 Hrs): 0.58%
- RRT 0.12 MW = 633 (Run #L, 2° C., 24 Hrs): BRL (BRL means below reporting limit (meaning less than 0.05% of tigecycline peak))
- RRT 0.23 MW = 572 (Run #L, 2° C., 24 Hrs): BRL (BRL means below reporting limit (meaning less than 0.05% of tigecycline peak))
- RRT 0.50 MW = 601 (Run #L, 2° C., 24 Hrs): BRL (BRL means below reporting limit (meaning less than 0.05% of tigecycline peak))
- RRT 0.55 MW = 583 (Run #L, 2° C., 24 Hrs): BRL (BRL means below reporting limit (meaning less than 0.05% of tigecycline peak))
- RRT 0.58 (Run #L, 2° C., 24 Hrs): 0.09%
- RRT 0.64 9-Amino (Run #L, 2° C., 24 Hrs): BRL (BRL means below reporting limit (meaning less than 0.05% of tigecycline peak))
- RRT 0.74 Epimer (Run #L, 2° C., 24 Hrs): 0.21%
- RRT 0.76 (Run #L, 2° C., 24 Hrs): BRL (BRL means below reporting limit (meaning less than 0.05% of tigecycline peak))
- RRT 0.78 MW = 557 (Run #L, 2° C., 24 Hrs): BRL (BRL means below reporting limit (meaning less than 0.05% of tigecycline peak))
- RRT 1.12 (Run #L, 2° C., 24 Hrs): BRL (BRL means below reporting limit (meaning less than 0.05% of tigecycline peak))
- RRT 1.45 (Run #L, 2° C., 24 Hrs): 0.08%
- RRT 1.58 (Run #L, 2° C., 24 Hrs): BRL (BRL means below reporting limit (meaning less than 0.05% of tigecycline peak))
- RRT 1.64 Mino (Run #L, 2° C., 24 Hrs): 0.13%
- RRT 1.67 MW = 556 (Run #L, 2° C., 24 Hrs): BRL (BRL means below reporting limit (meaning less than 0.05% of tigecycline peak))
- RRT 1.85 MW = 597 (Run #L, 2° C., 24 Hrs): 0.09%
- Strength (Run #L, 2° C., 24 Hrs): 19.156 mg/mL
- Total (Run #L, 2° C., 24 Hrs): 0.61%
- RRT 0.12 MW = 633 (Run #M, 8° C., 1 Hrs): BRL (BRL means below reporting limit (meaning less than 0.05% of tigecycline peak))
- RRT 0.23 MW = 572 (Run #M, 8° C., 1 Hrs): BRL (BRL means below reporting limit (meaning less than 0.05% of tigecycline peak))
- RRT 0.50 MW = 601 (Run #M, 8° C., 1 Hrs): BRL (BRL means below reporting limit (meaning less than 0.05% of tigecycline peak))
- RRT 0.55 MW = 583 (Run #M, 8° C., 1 Hrs): BRL (BRL means below reporting limit (meaning less than 0.05% of tigecycline peak))
- RRT 0.58 (Run #M, 8° C., 1 Hrs): 0.08%
- RRT 0.64 9-Amino (Run #M, 8° C., 1 Hrs): BRL (BRL means below reporting limit (meaning less than 0.05% of tigecycline peak))
- RRT 0.74 Epimer (Run #M, 8° C., 1 Hrs): 0.20%
- RRT 0.76 (Run #M, 8° C., 1 Hrs): 0.06%
- RRT 0.78 MW = 557 (Run #M, 8° C., 1 Hrs): BRL (BRL means below reporting limit (meaning less than 0.05% of tigecycline peak))
- RRT 1.12 (Run #M, 8° C., 1 Hrs): BRL (BRL means below reporting limit (meaning less than 0.05% of tigecycline peak))
- RRT 1.45 (Run #M, 8° C., 1 Hrs): BRL (BRL means below reporting limit (meaning less than 0.05% of tigecycline peak))
- RRT 1.58 (Run #M, 8° C., 1 Hrs): BRL (BRL means below reporting limit (meaning less than 0.05% of tigecycline peak))
- RRT 1.64 Mino (Run #M, 8° C., 1 Hrs): 0.14%
- RRT 1.67 MW = 556 (Run #M, 8° C., 1 Hrs): BRL (BRL means below reporting limit (meaning less than 0.05% of tigecycline peak))
- RRT 1.85 MW = 597 (Run #M, 8° C., 1 Hrs): BRL (BRL means below reporting limit (meaning less than 0.05% of tigecycline peak))
- Strength (Run #M, 8° C., 1 Hrs): 19.270 mg/mL
- Total (Run #M, 8° C., 1 Hrs): 0.47%
- RRT 0.12 MW = 633 (Run #M, 8° C., 4 Hrs): BRL (BRL means below reporting limit (meaning less than 0.05% of tigecycline peak))
- RRT 0.23 MW = 572 (Run #M, 8° C., 4 Hrs): BRL (BRL means below reporting limit (meaning less than 0.05% of tigecycline peak))
- RRT 0.50 MW = 601 (Run #M, 8° C., 4 Hrs): BRL (BRL means below reporting limit (meaning less than 0.05% of tigecycline peak))
- RRT 0.55 MW = 583 (Run #M, 8° C., 4 Hrs): BRL (BRL means below reporting limit (meaning less than 0.05% of tigecycline peak))
- RRT 0.58 (Run #M, 8° C., 4 Hrs): 0.07%
- RRT 0.64 9-Amino (Run #M, 8° C., 4 Hrs): BRL (BRL means below reporting limit (meaning less than 0.05% of tigecycline peak))
- RRT 0.74 Epimer (Run #M, 8° C., 4 Hrs): 0.23%
- RRT 0.76 (Run #M, 8° C., 4 Hrs): 0.06%
- RRT 0.78 MW = 557 (Run #M, 8° C., 4 Hrs): BRL (BRL means below reporting limit (meaning less than 0.05% of tigecycline peak))
- RRT 1.12 (Run #M, 8° C., 4 Hrs): BRL (BRL means below reporting limit (meaning less than 0.05% of tigecycline peak))
- RRT 1.45 (Run #M, 8° C., 4 Hrs): 0.06%
- RRT 1.58 (Run #M, 8° C., 4 Hrs): BRL (BRL means below reporting limit (meaning less than 0.05% of tigecycline peak))
- RRT 1.64 Mino (Run #M, 8° C., 4 Hrs): 0.08%
- RRT 1.67 MW = 556 (Run #M, 8° C., 4 Hrs): BRL (BRL means below reporting limit (meaning less than 0.05% of tigecycline peak))
- RRT 1.85 MW = 597 (Run #M, 8° C., 4 Hrs): 0.06%
- Strength (Run #M, 8° C., 4 Hrs): 19.340 mg/mL
- Total (Run #M, 8° C., 4 Hrs): 0.57%
- RRT 0.12 MW = 633 (Run #M, 8° C., 8 Hrs): BRL (BRL means below reporting limit (meaning less than 0.05% of tigecycline peak))
- RRT 0.23 MW = 572 (Run #M, 8° C., 8 Hrs): BRL (BRL means below reporting limit (meaning less than 0.05% of tigecycline peak))
- RRT 0.50 MW = 601 (Run #M, 8° C., 8 Hrs): BRL (BRL means below reporting limit (meaning less than 0.05% of tigecycline peak))
- RRT 0.55 MW = 583 (Run #M, 8° C., 8 Hrs): BRL (BRL means below reporting limit (meaning less than 0.05% of tigecycline peak))
- RRT 0.58 (Run #M, 8° C., 8 Hrs): 0.08%
- RRT 0.64 9-Amino (Run #M, 8° C., 8 Hrs): BRL (BRL means below reporting limit (meaning less than 0.05% of tigecycline peak))
- RRT 0.74 Epimer (Run #M, 8° C., 8 Hrs): 0.24%
- RRT 0.76 (Run #M, 8° C., 8 Hrs): 0.06%
- RRT 0.78 MW = 557 (Run #M, 8° C., 8 Hrs): BRL (BRL means below reporting limit (meaning less than 0.05% of tigecycline peak))
- RRT 1.12 (Run #M, 8° C., 8 Hrs): BRL (BRL means below reporting limit (meaning less than 0.05% of tigecycline peak))
- RRT 1.45 (Run #M, 8° C., 8 Hrs): 0.07%
- RRT 1.58 (Run #M, 8° C., 8 Hrs): BRL (BRL means below reporting limit (meaning less than 0.05% of tigecycline peak))
- RRT 1.64 Mino (Run #M, 8° C., 8 Hrs): 0.11%
- RRT 1.67 MW = 556 (Run #M, 8° C., 8 Hrs): BRL (BRL means below reporting limit (meaning less than 0.05% of tigecycline peak))
- RRT 1.85 MW = 597 (Run #M, 8° C., 8 Hrs): 0.06%
- Strength (Run #M, 8° C., 8 Hrs): 19.238 mg/mL
- Total (Run #M, 8° C., 8 Hrs): 0.62%
- RRT 0.12 MW = 633 (Run #M, 8° C., 10 Hrs): BRL (BRL means below reporting limit (meaning less than 0.05% of tigecycline peak))
- RRT 0.23 MW = 572 (Run #M, 8° C., 10 Hrs): BRL (BRL means below reporting limit (meaning less than 0.05% of tigecycline peak))
- RRT 0.50 MW = 601 (Run #M, 8° C., 10 Hrs): BRL (BRL means below reporting limit (meaning less than 0.05% of tigecycline peak))
- RRT 0.55 MW = 583 (Run #M, 8° C., 10 Hrs): 0.09%
- RRT 0.58 (Run #M, 8° C., 10 Hrs): 0.07%
- RRT 0.64 9-Amino (Run #M, 8° C., 10 Hrs): BRL (BRL means below reporting limit (meaning less than 0.05% of tigecycline peak))
- RRT 0.74 Epimer (Run #M, 8° C., 10 Hrs): 0.25%
- RRT 0.76 (Run #M, 8° C., 10 Hrs): 0.05%
- RRT 0.78 MW = 557 (Run #M, 8° C., 10 Hrs): BRL (BRL means below reporting limit (meaning less than 0.05% of tigecycline peak))
